Measured values taken from US9902713B2, “Neuroprotective compounds and use thereof” (BOARD OF REGENTS OF THE UNIVERSITY OF TEXAS SYSTEM, priority 2013, dated 2018).

What was measured:
U2OS cells = assay: Protection from doxorubicin-mediated toxicity (Dox:Tox); type: cell-based
in vivo = details: mouse; for Kp: brain and plasma
[1] = Pharmacokinetic analysis, plasma and brain levels
blast-injured mice = assay: Barnes maze, treatment begun 10 months after blast injury; type: in vivo
Description: After 8 weeks of treatment, mice were completely withdrawn from treatment with vehicle or compound.

hERG = hERG (Homo sapiens, UniProt Q12809); assay: hERG patch clamp assay
Sequence of hERG (Q12809 whole entry): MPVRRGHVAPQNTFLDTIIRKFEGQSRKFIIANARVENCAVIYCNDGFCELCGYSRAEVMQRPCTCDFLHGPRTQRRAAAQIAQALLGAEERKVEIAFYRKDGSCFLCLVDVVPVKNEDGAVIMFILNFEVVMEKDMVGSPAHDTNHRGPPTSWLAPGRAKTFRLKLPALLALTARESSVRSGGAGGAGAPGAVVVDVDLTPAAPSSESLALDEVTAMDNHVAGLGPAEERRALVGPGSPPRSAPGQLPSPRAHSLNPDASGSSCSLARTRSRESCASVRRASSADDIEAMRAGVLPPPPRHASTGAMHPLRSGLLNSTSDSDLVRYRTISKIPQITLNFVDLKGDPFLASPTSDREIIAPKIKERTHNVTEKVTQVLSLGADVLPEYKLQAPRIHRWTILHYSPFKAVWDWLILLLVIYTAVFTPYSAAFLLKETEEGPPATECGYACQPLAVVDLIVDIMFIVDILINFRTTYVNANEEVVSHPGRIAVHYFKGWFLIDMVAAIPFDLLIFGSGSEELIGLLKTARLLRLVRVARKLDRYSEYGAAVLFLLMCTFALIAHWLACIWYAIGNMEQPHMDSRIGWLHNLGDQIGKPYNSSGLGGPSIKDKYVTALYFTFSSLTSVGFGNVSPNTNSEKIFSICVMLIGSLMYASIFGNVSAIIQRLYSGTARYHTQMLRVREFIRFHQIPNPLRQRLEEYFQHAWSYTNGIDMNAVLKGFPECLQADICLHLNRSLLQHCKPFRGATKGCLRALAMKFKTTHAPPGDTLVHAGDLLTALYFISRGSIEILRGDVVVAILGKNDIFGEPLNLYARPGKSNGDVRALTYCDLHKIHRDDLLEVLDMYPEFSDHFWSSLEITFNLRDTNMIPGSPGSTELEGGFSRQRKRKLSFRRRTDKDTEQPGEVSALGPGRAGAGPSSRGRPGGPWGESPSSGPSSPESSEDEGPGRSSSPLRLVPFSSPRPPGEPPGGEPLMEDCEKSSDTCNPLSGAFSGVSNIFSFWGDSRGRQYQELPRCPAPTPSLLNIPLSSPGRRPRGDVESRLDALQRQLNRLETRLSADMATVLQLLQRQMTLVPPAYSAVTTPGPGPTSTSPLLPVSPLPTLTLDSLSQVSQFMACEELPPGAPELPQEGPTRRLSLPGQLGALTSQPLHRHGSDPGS

CYP1A2 = CYP1A2 (Homo sapiens, UniProt P05177); assay: Cytochrome P450 inhibition
Sequence of CYP1A2 (P05177 whole entry): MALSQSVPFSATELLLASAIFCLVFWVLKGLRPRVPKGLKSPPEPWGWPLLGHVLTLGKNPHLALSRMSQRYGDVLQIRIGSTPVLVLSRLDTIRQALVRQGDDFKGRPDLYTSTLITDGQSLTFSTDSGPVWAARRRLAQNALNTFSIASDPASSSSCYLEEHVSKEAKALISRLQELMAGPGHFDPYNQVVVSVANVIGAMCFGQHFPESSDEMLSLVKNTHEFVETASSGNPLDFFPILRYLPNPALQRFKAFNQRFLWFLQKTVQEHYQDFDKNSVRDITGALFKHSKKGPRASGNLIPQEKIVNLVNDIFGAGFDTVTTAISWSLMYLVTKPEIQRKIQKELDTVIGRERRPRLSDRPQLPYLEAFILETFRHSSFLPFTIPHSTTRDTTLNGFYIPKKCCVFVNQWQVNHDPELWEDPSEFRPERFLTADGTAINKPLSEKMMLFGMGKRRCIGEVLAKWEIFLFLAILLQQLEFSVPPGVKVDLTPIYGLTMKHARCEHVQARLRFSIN

CYP2C19 = CYP2C19 (Homo sapiens, UniProt P33261); assay: Cytochrome P450 inhibition
Sequence of CYP2C19 (P33261 whole entry): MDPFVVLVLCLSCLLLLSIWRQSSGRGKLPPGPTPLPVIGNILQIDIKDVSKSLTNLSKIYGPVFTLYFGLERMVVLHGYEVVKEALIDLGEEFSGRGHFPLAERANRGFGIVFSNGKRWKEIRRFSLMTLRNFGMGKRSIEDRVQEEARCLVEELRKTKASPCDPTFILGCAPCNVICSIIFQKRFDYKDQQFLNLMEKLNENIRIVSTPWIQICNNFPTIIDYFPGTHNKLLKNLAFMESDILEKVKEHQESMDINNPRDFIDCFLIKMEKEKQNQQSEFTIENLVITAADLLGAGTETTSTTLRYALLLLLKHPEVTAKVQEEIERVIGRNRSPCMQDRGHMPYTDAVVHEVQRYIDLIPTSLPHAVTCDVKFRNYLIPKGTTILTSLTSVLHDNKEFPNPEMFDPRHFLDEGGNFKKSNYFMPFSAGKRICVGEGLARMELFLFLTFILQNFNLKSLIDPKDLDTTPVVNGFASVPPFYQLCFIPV

Compound: COc1cccc(NCC(F)Cn2c3ccc(Br)cc3c3cc(Br)ccc32)c1 (stereo not drawn) [P7C3-A20, N-(3-(3,6-dibromo-9H-carbazol-9-yl)-2-fluoropropyl)-3-methoxyaniline]
- level of compound required for maximal Dox:Tox protection (U2OS cells): 3 µM
- protection from doxorubicin-mediated cell toxicity (U2OS cells; U2OS cells, FIG. 11): dose-responsive activity

Compound: COc1cccc(NCC(F)Cn2c3ccc(Br)cc3c3cc(Br)ccc32)n1 (racemic) [P7C3-S243, N-(3-(3,6-dibromo-9H-carbazol-9-yl)-2-fluoropropyl)-6-methoxypyridin-2-amine]
- Kp (in vivo; ip, 10 mg/kg): 0.45
- Kp (in vivo; ip, 20 mg/kg): 0.28
- Kp (in vivo; iv, 10 mg/kg): 1.1
- Kp (in vivo; po, 20 mg/kg): 0.81
- bioavailability (in vivo; brain, po, 20 mg/kg): 58%
- bioavailability (in vivo; plasma, ip, 20 mg/kg): 90%
- bioavailability (in vivo; plasma, po, 20 mg/kg): 38%
- % F (brain) ([1]; IP 10 mg/kg): 28%
- % F (plasma) ([1]; IP 10 mg/kg): 66%
- AUC(brain) ([1]; IP 10 mg/kg): 189 ± 35 µg·min/g
- T1/2 ([1]; IP 10 mg/kg): >24 h
- % F (brain) ([1]; IP 20 mg/kg): 48%
- AUC(brain) ([1]; IP 20 mg/kg): 319 ± 68 µg·min/g
- T1/2 ([1]; IP 20 mg/kg): 15 h
- AUC(brain) ([1]; IV 10 mg/kg): 671 ± 14 µg·min/g
- T1/2 ([1]; IV 10 mg/kg): 7.4 h
- AUC(brain) ([1]; PO 20 mg/kg): 388 ± 29 µg·min/g
- T1/2 ([1]; PO 20 mg/kg): 9.6 h
- metabolic stability in vivo ([1]; all routes of administration): metabolically stable
- brain levels ([1]; following IP dosing): dose-proportional increase

Compound: COc1cccc(NCC(F)Cn2c3ccc(Br)cc3c3cc(Br)ccc32)n1 (single isomer, unassigned; (-)) [(−)-P7C3-S243, (−)-N-(3-(3,6-dibromo-9H-carbazol-9-yl)-2-fluoropropyl)-6-methoxypyridin-2-amine]
- time spent in the escape area (blast-injured mice; 3 mg/kg/day begun 10 months after injury, after 4 and 8 weeks): sustained improvement in cognitive function
- cognition relative to vehicle group after withdrawal (blast-injured mice; after 8 weeks of treatment, then withdrawn): sustained improvement in cognition
- inhibition at 50 µM (hERG): < 15%
- IC50 (CYP1A2): 20 µM
- IC50 (CYP2C19): 1.9 µM
